Laboratory results from US9445601B2, “Fungicide active substance combinations” (Bayer Intellectual Property GmbH, priority 1997, dated 2016).
Like-named read-outs stand apart in the source and are kept apart here.

How the values were obtained:
Format in all cases: in vivo
Sphaerotheca fuliginea = assay: Sphaerotheca test (cucumber)/protective; details: for pest or weed control at 2.5 g/ha: application rate 2.5 g/ha
Method: Sphaerotheca Test (Cucumber)/Protective
(§1) • Solvent: 47 parts by weight of acetone • Emulsifier: 3 parts by weight of alkylaryl polyglycol ether
After the spray coating has dried on, the plants are inoculated with an aqueous spore suspension of Sphaerotheca fuliginea. The plants are then placed in a greenhouse at about 23° C. and a relative atmospheric humidity of about 70%.
Evaluation is carried out 10 days after the inoculation.

[1] = system: Erysiphe graminis f. sp. tritici; assay: Erysiphe test (wheat)/curative; details: curative, single active compound, 7 days after inoculation
Method: Erysiphe Test (Wheat)/Curative
(§2) • Solvent: 10 parts by weight of N-methyl-pyrrolidone • Emulsifier: 0.6 parts by weight of alkylaryl polyglycol ether
(§3) To produce a suitable preparation of active compound, 1 part by weight of active compound or active compound combination is mixed with the stated amounts of solvent and emulsifier, and the concentrate is diluted with water to the desired concentration, or a commercial formulation of active compound or active compound combination is diluted with water to the desired concentration.
To test for curative activity, young plants are dusted with spores of Erysiphe graminis f. sp. tritici. 48 hours after the inoculation, the plants are sprayed with the active compound preparation at the stated application rate.
(§4) The plants are then placed in a greenhouse at a temperature of about 20° C. and a relative atmospheric humidity of about 80% to promote the development of mildew pustules.
(§5) Evaluation is carried out 7 days after the inoculation. 0% means an efficacy which corresponds to that of the control, whereas an efficacy of 100% means that no infection is observed.

[2] = system: Erysiphe graminis f. sp. tritici; assay: Erysiphe test (wheat)/protective; details: protective, single active compound, application rate 6.25 g/ha, 7 days after inoculation
Method: Erysiphe Test (Wheat)/Protective
as §2, §3
(§6) To test for protective activity, young plants are sprayed with the active compound preparation at the stated application rate.
After the spray coating has dried on, the plants are dusted with spores of Erysiphe graminis f. sp. tritici.
as §4, §5

Rhizoctonia solani = Rhizoctonia solani test (cotton)/seed treatment; details: dry seed dressing, single active compound, application rate 25 g/ha, evaluation after 8 days
Method: Rhizoctonia solani Test (Cotton)/Seed Treatment
(§7) The active compounds are applied as a dry seed dressing. This is prepared by extending the respective active compound or the active compound combination with ground minerals to give a finely pulverulent mixture which ensures uniform distribution on the seed surface.
(§8) To dress the seed, the infected seed together with the seed dressing is shaken for 3 minutes in a sealed glass flask.
2×50 corns of seed are sown at a depth of 2 cm in standard soil infected with Rhizoctonia solani, and the seeds are cultivated in a greenhouse at a temperature of about 22° C. in seed trays which receive a light regimen of 15 hours per day.
Evaluation is carried out after 8 days. 0% means an efficacy which corresponds to that of the control, whereas an efficacy of 100% means that no infection is observed.

[3] = system: Erysiphe graminis f. sp. hordei; assay: Erysiphe test (barley)/curative; details: curative, single active compound, application rate 25 g/ha, evaluation 7 days after inoculation
Method: Erysiphe Test (Barley)/Curative
as §2, §3
To test for curative activity, young plants are dusted with spores of Erysiphe graminis f. sp. hordei. 48 hours after the inoculation, the plants are sprayed with the active compound preparation at the stated application rate.
(§9) The plants are placed in a greenhouse at a temperature of about 20° C. and a relative atmospheric humidity of about 80% to promote the development of mildew pustules.
as §5

Leptosphaeria nodorum = Leptosphaeria nodorum test (wheat)/protective; details: protective, single active compound, application rate 25 g/ha, 10 days after inoculation
Method: Leptosphaeria nodorum Test (Wheat)/Protective
as §2, §3, §6
After the spray coating has dried on, the plants are sprayed with a spore suspension of Leptosphaeria nodorum. The plants remain in an incubation cabin at 20° C. and 100% relative atmospheric humidity for 48 hours.
The plants are then placed in a greenhouse at a temperature of about 15° C. and a relative atmospheric humidity of about 80%.
(§10) Evaluation is carried out 10 days after the inoculation. 0% means an efficacy which corresponds to that of the control, whereas an efficacy of 100% means that no infection is observed.

Fusarium culmorum = Fusarium culmorum test (wheat)/seed treatment; details: dry seed dressing, single active compound, application rate 75 g/ha as printed, about 3 weeks after sowing
Method: Fusarium culmorum Test (Wheat)/Seed Treatment
as §7, §8
2×100 corns of wheat are sown at a depth of 1 cm in standard soil and cultivated in a greenhouse at a temperature of about 18° C. and a relative atmospheric humidity of about 95% in seed trays which receive a light regimen of 15 hours per day.
(§11) About 3 weeks after sowing, the plants are evaluated for symptoms. 0% means an efficacy which corresponds to that of the control, whereas an efficacy of 100% means that no infection is observed.

[4] = system: Erysiphe graminis f. sp. hordei; assay: Erysiphe test (barley)/protective; details: protective per Example 4 (table title prints curative), single active compound, application rate 25 g/ha, 7 days after inoculation
Method: Erysiphe Test (Barley)/Protective
as §2, §3, §6
After the spray coating has dried on, the plants are dusted with spores of Erysiphe graminis f. sp. hordei.
as §9, §5

Fusarium nivale = Fusarium nivale test (triticale)/seed treatment; details: dry seed dressing, single active compound, about 3 weeks after sowing
Method: Fusarium nivale Test (Triticale)/Seed Treatment
as §7, §8
2×100 corns of wheat are sown at a depth of 1 cm in standard soil and cultivated in a greenhouse at a temperature of about 10° C. and a relative atmospheric humidity of about 95% in seed trays which receive a light regimen of 15 hours per day.
as §11

Puccinia recondita = assay: Puccinia test (wheat)/protective; details: protective, single active compound, application rate 25 g/ha, 10 days after inoculation
Method: Puccinia Test (Wheat)/Protective
as §2, §3
To test for protective activity, young plants are inoculated with a spore suspension of Puccinia recondita in a 0.1% strength aqueous agar solution. After the spray coating had dried on, the plants are sprayed with the active compound preparation at the stated application rate.
The plants remain in an incubation cabin at 20° C. and 100% relative atmospheric humidity for 24 hours.
The plants are then placed in a greenhouse at a temperature of about 20° C. and a relative atmospheric humidity of about 80% to promote the development of rust pustules.
as §10

Venturia inaequalis = assay: Venturia test (apple)/protective; details: protective, single active compound, application rate 1 g/ha, evaluation 12 days after inoculation
Method: Venturia Test (Apple)/Protective
as §1, §3
To test for protective activity, young plants are sprayed with the active compound preparation at the stated application rate. After the spray coating has dried on, the plants are inoculated with an aqueous konidia suspension of the causative organism of apple scab Venturia inaequalis and then remain in an incubation cabin at about 20° C. and 100% relative atmospheric humidity for one day.
The plants are then placed in a greenhouse at about 21° C. and a relative atmospheric humidity of about 90%.
Evaluation is carried out 12 days after the inoculation. 0% means an efficacy which corresponds to that of the control, whereas an efficacy of 100% means that no infection is observed.

[5] = Podosphaera fuliginea, 240 h, cucumber, protective, single active compound, application rate 25 g/ha, evaluation 10 days after inoculation, read-out: Efficacy in %
[6] = Podosphaera fuliginea, 240 h, cucumber, protective, single active compound, application rate 12.5 g/ha, evaluation 10 days after inoculation, read-out: Efficacy in %
[7] = Podosphaera fuliginea, 240 h, cucumber, protective, single active compound, evaluation 10 days after inoculation, read-out: Efficacy in %
[8] = application rate 75 g/ha as printed

Cc1cc(C)nc(Nc2ccccc2)n1 [(XVIa), pyrimethanil]
pest or weed control at 25 g/ha (Sphaerotheca fuliginea; [5]): 0%

CC1(C(=O)Nc2ccc(O)c(Cl)c2Cl)CCCCC1 [(VIII)]
pest or weed control at 12.5 g/ha (Sphaerotheca fuliginea; [6]): 0%

CO/N=C(/C(=O)OC)c1ccccc1COc1ccccc1C [(XIII)]
Efficacy in % ([1]; application rate 6.25 g/ha): 94%
pest or weed control at 2.5 g/ha (Sphaerotheca fuliginea; [7]): 57%

CCCOC(=O)NC(C(=O)NC(C)c1ccc(C)cc1)C(C)C (centres unmarked) [(IX)]
pest or weed control at 12.5 g/ha (Sphaerotheca fuliginea; [6]): 13%

O=C1c2ccccc2C(=O)N1SC(Cl)(Cl)Cl [(XIX)]
pest or weed control at 25 g/ha (Sphaerotheca fuliginea; [5]): 0%

zinc propylene-1,2-bis-(dithiocarbamate) [(VI)]
Efficacy in % (Sphaerotheca fuliginea; cucumber, protective, single active compound, application rate 25 g/ha, evaluation 10 days after inoculation): 0%

CN(C)S(=O)(=O)N(SC(F)(Cl)Cl)c1ccccc1 [(IVa)]
pest or weed control at 25 g/ha (Sphaerotheca fuliginea; Podosphaera fuliginea, 240 h, read-out: Efficacy in %): 0%

CC12CC1(C)C(=O)N(c1cc(Cl)cc(Cl)c1)C2=O (centres unmarked) [(XV)]
pest or weed control at 12.5 g/ha (Sphaerotheca fuliginea; [6]): 0%

CC(C)(C)C(O)(CCc1ccc(Cl)cc1)Cn1cncn1 (centres unmarked) [(III)]
Efficacy in % ([1]; application rate 25 g/ha): 88%
Efficacy in % [2]: 57%
pest or weed control at 2.5 g/ha (Sphaerotheca fuliginea; [7]): 50%
Efficacy in % (Rhizoctonia solani): 27%

OC(Cc1ccccc1Cl)(Cn1nc[nH]c1=S)C1(Cl)CC1 (centres unmarked) [(I), 2-[2-(1-chlorocyclopropyl)-3-(2-chlorophenyl)-2-hydroxypropyl]-2,4-dihydro-[1,2,4]-triazole-3-thione]
Efficacy in % [3]: 81%
Efficacy in % (Leptosphaeria nodorum): 62%
Efficacy in % (Fusarium culmorum): 32%
Efficacy in % ([1]; application rate 6.25 g/ha): 25%
Efficacy in % ([1]; application rate 12.5 g/ha): 50%
Efficacy in % ([1]; application rate 25 g/ha): 75%
Efficacy in % [4]: 83%
Efficacy in % [2]: 57%
Efficacy in % (Fusarium nivale; application rate 25 g/ha): 0%
Efficacy in % (Fusarium nivale; [8]): 14%
Efficacy in % (Puccinia recondita): 38%
pest or weed control at 0.5 g/ha (Sphaerotheca fuliginea; Podosphaera fuliginea, 240 h, cucumber, protective, single active compound, application rate 0.5 g/ha, evaluation 10 days after inoculation, read-out: Efficacy in %): 0%
pest or weed control at 2.5 g/ha (Sphaerotheca fuliginea; [7]): 21%
Efficacy in % (Venturia inaequalis): 1%
Efficacy in % (Rhizoctonia solani): 19%

CC(C)(C)C(=O)C(Oc1ccc(Cl)cc1)n1cncn1 (centres unmarked) [(IIa), 1-(4-chloro-phenoxy)-3,3-dimethyl-1-(1,2,4-triazol-1-yl)-butane-2-one]
pest or weed control at 2.5 g/ha (Sphaerotheca fuliginea; [7]): 37%

N#Cc1c[nH]cc1-c1cccc2c1OC(F)(F)O2 [(XXIb), 4-(2,2-difluoro-1,3-benzodioxol-7-yl)-1H-pyrrole-3-carbonitrile]
Efficacy in % ([1]; application rate 6.25 g/ha): 38%

CCCN(CC)CC1COC2(CCC(C(C)(C)C)CC2)O1 (centres unmarked) [(XI), 8-t-butyl-2-(N-ethyl-N-n-propyl-amino)-methyl-1,4-dioxaspiro-[5,4]-decane]
Efficacy in % ([1]; application rate 12.5 g/ha): 0%
Efficacy in % (Sphaerotheca fuliginea; cucumber, protective, single active compound, application rate 12.5 g/ha, evaluation 10 days after inoculation): 0%

Cc1ccc(N(SC(F)(Cl)Cl)S(=O)(=O)N(C)C)cc1 [(IVb)]
pest or weed control at 25 g/ha (Sphaerotheca fuliginea; [5]): 0%

COc1ccc(C(=CC(=O)N2CCOCC2)c2ccc(Cl)cc2)cc1OC [(XVIII)]
pest or weed control at 12.5 g/ha (Sphaerotheca fuliginea; [6]): 0%

N#Cc1c[nH]cc1-c1cccc(Cl)c1Cl [(XXIa), 4-(2,3-dichlorophenyl)-pyrrole-3-carbonitrile]
Efficacy in % (Fusarium nivale; application rate 25 g/ha): 0%

CCC(C)(NC(=O)c1cc(Cl)c(C)c(Cl)c1)C(=O)CCl (centres unmarked) [(XXIV)]
pest or weed control at 12.5 g/ha (Sphaerotheca fuliginea; [6]): 0%

N#Cc1c(Cl)c(Cl)c(Cl)c(C#N)c1Cl [(XVII)]
pest or weed control at 25 g/ha (Sphaerotheca fuliginea; [5]): 0%

CO/C=C(/C(=O)OC)c1ccccc1Oc1cc(Oc2ccccc2C#N)ncn1 [(XII)]
Efficacy in % [4]: 92%
pest or weed control at 2.5 g/ha (Sphaerotheca fuliginea; [7]): 59%

Cc1cc(C2CC2)nc(Nc2ccccc2)n1 [(XVIb)]
Efficacy in % ([1]; application rate 12.5 g/ha): 0%
pest or weed control at 25 g/ha (Sphaerotheca fuliginea; [5]): 0%

CO/N=C(\C1=NOCCO1)c1ccccc1Oc1ncnc(Oc2ccccc2Cl)c1F [(XIV)]
Efficacy in % [3]: 75%
Efficacy in % (Leptosphaeria nodorum): 87%
Efficacy in % ([1]; application rate 12.5 g/ha): 0%
Efficacy in % (Fusarium nivale; [8]): 94%
Efficacy in % (Puccinia recondita): 94%
pest or weed control at 2.5 g/ha (Sphaerotheca fuliginea; [7]): 22%

CC(C)(C)C(O)C(Oc1ccc(-c2ccccc2)cc1)n1cncn1 (centres unmarked) [(IIc), 1-(4-phenyl-phenoxy)-3,3-dimethyl-1-(1,2,4-triazol-1-yl)-butan-2-ol]
Efficacy in % (Fusarium culmorum): 27%
pest or weed control at 2.5 g/ha (Sphaerotheca fuliginea; [7]): 0%
Efficacy in % (Rhizoctonia solani): 0%

CSC(=O)c1cccc2nnsc12 [(X)]
pest or weed control at 2.5 g/ha (Sphaerotheca fuliginea; [7]): 0%

CC(C)(C)C(O)C(Oc1ccc(Cl)cc1)n1cncn1 (centres unmarked) [(IIb), 1-(4-chloro-phenoxy)-3,3-dimethyl-1-(1,2,4-triazol-1-yl)-butan-2-ol]
Efficacy in % ([1]; application rate 25 g/ha): 81%
pest or weed control at 2.5 g/ha (Sphaerotheca fuliginea; [7]): 80%
